Assay results: ChEMBL document CHEMBL1148105, “Bioactive metabolites from a marine-derived strain of the fungus Emericella variecolor” (2002)
≈ marks a conversion by molar mass, not a printed value.

What was measured:
Assay type in all cases: functional
Staphylococcus aureus = assay: Antimicrobial activity against Staphylococcus aureus
Enterococcus faecalis = assay: Antimicrobial activity against Enterococcus faecalis
Bacillus subtilis = assay: Antimicrobial activity against Bacillus subtilis
Escherichia coli = assay: Antimicrobial activity against Escherichia coli

MIC (Staphylococcus aureus) [µg/mL]	MIC (Enterococcus faecalis) [µg/mL]	MIC (Bacillus subtilis) [µg/mL]	MIC (Escherichia coli) [µg/mL]	Structure (SMILES)
50 (≈ 123 µM)	50 (≈ 123 µM)	50 (≈ 123 µM)	50 (≈ 123 µM)	C=C(C)[C@H]1COc2c(C)cc3oc4c(CC=C(C)C)ccc(O)c4c(=O)c3c2[C@@H]1O [SHAMIXANTHONE]
50	50	50	50	C=C(C)[C@H]1COc2c(C)cc3oc4c(C[C@H](O)C(C)(C)O)ccc(O)c4c(=O)c3c2[C@@H]1O.O [TAJIXANTHONE HYDRATE]
